Values of other authors as cited in US20050106263A1, “Green tea, multivitamin, mineral and herb based hair and male facial skin formulas” (priority 2003, published 2005).

What was measured:
[1] = in vivo
hair loss = settings: comparison drug, general statement

O=C(O[C@@H]1Cc2c(O)cc(O)cc2O[C@@H]1c1cc(O)c(O)c(O)c1)c1cc(O)c(O)c(O)c1 [EGCG, epigallocatchin-3-gallate]
oral bioavailability [1]: low oral bioavailability

Nc1cc(N2CCCCC2)nc(N)[n+]1[O-] [Rogaine]
effect on front hairline (hair loss): does not work well on the front hairline | persistence of effect after use is stopped (hair loss): must be continually used or its effects will not only cease but will reverse
